Measurements taken from publication PMC7402526, “An in vitro quantitative systems pharmacology approach for deconvolving mechanisms of drug-induced, multilineage cytopenias” (PLoS Computational Biology, 2020).

Columns and labels:
[1] = system: hematopoietic stem cells (HSCs); assay: Multi-lineage toxicity assay (MLTA), HSCs: concentration-response and QSP model fit; format: cell-based, human; design: EmaxAP,HSC / EmaxT,HSC / Emax_drug_HSC: unitless, 0–2; ≤1 anti-proliferative, >1 adds cell killing
Procedure, shortened: (§1)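 Freeze-thawed primary human bone marrow CD34+ cells were grown in SFEM II with a multi-lineage cytokine cocktail, drug added day 0, six days at 37°C. Lineage counts came from 17-parameter flow with TruCount beads, vehicle-normalized per donor, then fitted by an Emax-based QSP model.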

[2] = system: multi-potent progenitors (MPPs); assay: MLTA, MPPs: concentration-response and QSP model fit; format: cell-based, human; conditions: Homo sapiens, 144 h
Procedure, shortened: as §1

[3] = system: monocyte progenitors (monocyte prog); assay: MLTA, MonoP: concentration-response and QSP model fit; format: cell-based, human; conditions: Homo sapiens, Monocyte, 144 h
Procedure, shortened: (§2)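 Drug was added at time 0 to thawed human bone marrow CD34+ cells in SFEM II plus a cytokine cocktail. After 6 days at 37°C, subsets were counted by surface-marker flow with TruCount beads. Vehicle-normalized, donor-pooled data then fed an Emax model separating anti-proliferative from cell-killing effects.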

monocytes (monocyte-lin) = assay: MLTA, Mono: concentration-response and QSP model fit; format: cell-based, human; conditions: Homo sapiens, Monocyte, 144 h
Procedure, shortened: as §2

[4] = system: early erythroid cells (Eryth I); assay: MLTA, ErythI: concentration-response and QSP model fit; format: cell-based, human; conditions: Homo sapiens, 144 h
Procedure, shortened: as §2

[5] = system: late erythroid cells (Eryth II); assay: MLTA, ErythII: concentration-response and QSP model fit; format: cell-based, human; conditions: Homo sapiens, 144 h
Procedure, shortened: as §1

B cells (B-lin) = assay: MLTA, B-lin: concentration-response and QSP model fit; format: cell-based, human; conditions: Homo sapiens, B-cell, 144 h
Procedure, shortened: as §1

[6] = system: total dead cells (totalDeadCells); assay: MLTA, total dead cells concentration-response; format: cell-based; conditions: Homo sapiens, 144 h, 6 days, normalized to vehicle control, read-out: total_dead normalized cell count
Description: A custom optimized cytokine cocktail was developed using commercially available cytokines (Peprotech, New Jersey) to facilitate simultaneous multi-lineage differentiation and self-renewal of freeze-thawed primary human bone marrow-derived CD34+ cells in SFEM II media (cells and media from StemCell Technologies, Vancouver). Cultures were carried out in ultra-low attachment 96-well plates (Corning, New York) with test article added on day 0 and cultured at 37°C, 85% relative humidity, and 5% CO2 for six days before interrogating drug impact via 17-parameter flow cytometry.
The flow cytometry panel used to define hematopoietic subsets was composed of CD34-PECy7, CD90-PECY5, CD38-AF488, CD371-PE, CD45Ra-BV421, CD14-BV605, CD42b-AF647, CD10-PEDazzle594, CD235a-PerCPCy5.5 (BioLegend, California), CD15-BUV395, CD41a-APCH7, CD71-BV786 (BD Biosciences, California), and DAPI for dead cell exclusion (ThermoFisher, California). In short, Day 6 cells were harvested, FcR-blocked (FcR binding inhibitor, ThermoFisher), surface-stained, then analyzed in a buffer containing TruCount Control Beads using a BD LSR Fortessa SORP fitted with a high-throughput sampler (BD Biosciences, California). Data was analyzed in Diva 6.0.2 and exported to CSV where after all cell data was transformed to cell per mL then normalized on a per-donor basis to untreated control wells to determine drug impact.
Donor material was collected and cultured as described above. The number of replicate donor samples per drug ranged from 2–7 and varied per drug (S1 Table). Drug treatment was added at time 0 and cells were maintained in culture for 6 days. Concentrations tested for each drug compound are contained in S1 Table. Concentrations were selected to span a range that is clinically useful. Following treatment, cell populations were measured using flow cytometry. We extracted cell counts from flow cytometry data, normalized to bead counts, and corrected for well volume.
Each well was normalized to the average of six vehicle control wells. For drugs that were tested across multiple runs of the assay, vehicle-normalized donor data were pooled, and we used the average of these pooled data for further modeling. Normalized data used as model inputs are included in S1 Table.

CCc1cnn2c(NCc3ccc[n+]([O-])c3)cc(N3CCCC[C@H]3CCO)nc12 [dinaciclib]
activity at 0.0002 µM ([1]; Homo sapiens, Hematopoietic stem cell, 144 h, dose 0.2 nM, 6 days, normalized to vehicle control, read-out: HSCs normalized cell count): 89.5% | activity at 0.001 µM ([1]; Homo sapiens, Hematopoietic stem cell, 144 h, dose 1 nM, 6 days, normalized to vehicle control, read-out: HSCs normalized cell count): 106% | activity at 0.005 µM ([1]; Homo sapiens, Hematopoietic stem cell, 144 h, dose 5 nM, 6 days, normalized to vehicle control, read-out: HSCs normalized cell count): 115% | activity at 0.025 µM ([1]; Homo sapiens, Hematopoietic stem cell, 144 h, dose 25 nM, 6 days, normalized to vehicle control, read-out: HSCs normalized cell count): 61.2% | activity at 0.1 µM ([1]; Homo sapiens, Hematopoietic stem cell, 144 h, dose 100 nM, 6 days, normalized to vehicle control, read-out: HSCs normalized cell count): 1.89% | activity at 0.5 µM ([1]; Homo sapiens, Hematopoietic stem cell, 144 h, dose 500 nM, 6 days, normalized to vehicle control, read-out: HSCs normalized cell count): 5.17% | activity at 2.5 µM ([1]; Homo sapiens, Hematopoietic stem cell, 144 h, dose 2500 nM, 6 days, normalized to vehicle control, read-out: HSCs normalized cell count): 1.3% | Emax ([1]; Homo sapiens, Hematopoietic stem cell, 144 h, parameter from QSP model fitting, read-out: Emax_drug_HSC): 103% | EmaxAP,HSC ([1]; anti-proliferation component, min(1, EmaxT)): 1.000 | activity at 0.0002 µM ([2]; dose 0.2 nM, 6 days, normalized to vehicle control, read-out: MPPs normalized cell count): 94.1% | activity at 0.001 µM ([2]; dose 1 nM, 6 days, normalized to vehicle control, read-out: MPPs normalized cell count): 104% | activity at 0.005 µM ([2]; dose 5 nM, 6 days, normalized to vehicle control, read-out: MPPs normalized cell count): 96.7% | activity at 0.025 µM ([2]; dose 25 nM, 6 days, normalized to vehicle control, read-out: MPPs normalized cell count): 53.4% | activity at 0.1 µM ([2]; dose 100 nM, 6 days, normalized to vehicle control, read-out: MPPs normalized cell count): 2.71% | activity at 0.5 µM ([2]; dose 500 nM, 6 days, normalized to vehicle control, read-out: MPPs normalized cell count): 2.67% | activity at 2.5 µM ([2]; dose 2500 nM, 6 days, normalized to vehicle control, read-out: MPPs normalized cell count): 0.896% | Emax ([2]; parameter from QSP model fitting, read-out: Emax_drug_MPP): 69.4% | activity at 0.0002 µM ([3]; dose 0.2 nM, 6 days, normalized to vehicle control, read-out: MonoPs normalized cell count): 96.5% | activity at 0.001 µM ([3]; dose 1 nM, 6 days, normalized to vehicle control, read-out: MonoPs normalized cell count): 106% | activity at 0.005 µM ([3]; dose 5 nM, 6 days, normalized to vehicle control, read-out: MonoPs normalized cell count): 125% | activity at 0.025 µM ([3]; dose 25 nM, 6 days, normalized to vehicle control, read-out: MonoPs normalized cell count): 61.8% | activity at 0.1 µM ([3]; dose 100 nM, 6 days, normalized to vehicle control, read-out: MonoPs normalized cell count): 0.141% | activity at 0.5 µM ([3]; dose 500 nM, 6 days, normalized to vehicle control, read-out: MonoPs normalized cell count): 0.19% | activity at 2.5 µM ([3]; dose 2500 nM, 6 days, normalized to vehicle control, read-out: MonoPs normalized cell count): 0.231% | Emax ([3]; parameter from QSP model fitting, read-out: Emax_drug_MonoP): 0.04% | activity at 0.0002 µM (monocytes (monocyte-lin); dose 0.2 nM, 6 days, normalized to vehicle control, read-out: Mon normalized cell count): 90.7% | activity at 0.001 µM (monocytes (monocyte-lin); dose 1 nM, 6 days, normalized to vehicle control, read-out: Mon normalized cell count): 106% | activity at 0.005 µM (monocytes (monocyte-lin); dose 5 nM, 6 days, normalized to vehicle control, read-out: Mon normalized cell count): 69.5% | activity at 0.025 µM (monocytes (monocyte-lin); dose 25 nM, 6 days, normalized to vehicle control, read-out: Mon normalized cell count): 8.55% | activity at 0.1 µM (monocytes (monocyte-lin); dose 100 nM, 6 days, normalized to vehicle control, read-out: Mon normalized cell count): 0.496% | activity at 0.5 µM (monocytes (monocyte-lin); dose 500 nM, 6 days, normalized to vehicle control, read-out: Mon normalized cell count): 0.834% | activity at 2.5 µM (monocytes (monocyte-lin); dose 2500 nM, 6 days, normalized to vehicle control, read-out: Mon normalized cell count): 0.535% | Emax (monocytes (monocyte-lin); parameter from QSP model fitting, read-out: Emax_drug_Mono): 48.2% | activity at 0.0002 µM ([4]; dose 0.2 nM, 6 days, normalized to vehicle control, read-out: ErythI normalized cell count): 112% | activity at 0.001 µM ([4]; dose 1 nM, 6 days, normalized to vehicle control, read-out: ErythI normalized cell count): 104% | activity at 0.005 µM ([4]; dose 5 nM, 6 days, normalized to vehicle control, read-out: ErythI normalized cell count): 73.3% | activity at 0.025 µM ([4]; dose 25 nM, 6 days, normalized to vehicle control, read-out: ErythI normalized cell count): 23.9% | activity at 0.1 µM ([4]; dose 100 nM, 6 days, normalized to vehicle control, read-out: ErythI normalized cell count): 0.828% | activity at 0.5 µM ([4]; dose 500 nM, 6 days, normalized to vehicle control, read-out: ErythI normalized cell count): 0.888% | activity at 2.5 µM ([4]; dose 2500 nM, 6 days, normalized to vehicle control, read-out: ErythI normalized cell count): 0.845% | Emax ([4]; parameter from QSP model fitting, read-out: Emax_drug_ErythroidI): 112% | activity at 0.0002 µM ([5]; dose 0.2 nM, 6 days, normalized to vehicle control, read-out: ErythII normalized cell count): 90% | activity at 0.001 µM ([5]; dose 1 nM, 6 days, normalized to vehicle control, read-out: ErythII normalized cell count): 108% | activity at 0.005 µM ([5]; dose 5 nM, 6 days, normalized to vehicle control, read-out: ErythII normalized cell count): 98.7% | activity at 0.025 µM ([5]; dose 25 nM, 6 days, normalized to vehicle control, read-out: ErythII normalized cell count): 23.2% | activity at 0.1 µM ([5]; dose 100 nM, 6 days, normalized to vehicle control, read-out: ErythII normalized cell count): 0.0437% | activity at 0.5 µM ([5]; dose 500 nM, 6 days, normalized to vehicle control, read-out: ErythII normalized cell count): 0.0109% | activity at 2.5 µM ([5]; dose 2500 nM, 6 days, normalized to vehicle control, read-out: ErythII normalized cell count): 0.0201% | Emax ([5]; parameter from QSP model fitting, read-out: Emax_drug_ErythroidII): 7.1% | activity at 0.0002 µM (B cells (B-lin); dose 0.2 nM, 6 days, normalized to vehicle control, read-out: B-lin normalized cell count): 81.8% | activity at 0.001 µM (B cells (B-lin); dose 1 nM, 6 days, normalized to vehicle control, read-out: B-lin normalized cell count): 90.4% | activity at 0.005 µM (B cells (B-lin); dose 5 nM, 6 days, normalized to vehicle control, read-out: B-lin normalized cell count): 90.4% | activity at 0.025 µM (B cells (B-lin); dose 25 nM, 6 days, normalized to vehicle control, read-out: B-lin normalized cell count): 11.7% | activity at 0.1 µM (B cells (B-lin); dose 100 nM, 6 days, normalized to vehicle control, read-out: B-lin normalized cell count): 0.127% | activity at 0.5 µM (B cells (B-lin); dose 500 nM, 6 days, normalized to vehicle control, read-out: B-lin normalized cell count): 0.514% | activity at 2.5 µM (B cells (B-lin); dose 2500 nM, 6 days, normalized to vehicle control, read-out: B-lin normalized cell count): 0.106% | Emax (B cells (B-lin); parameter from QSP model fitting, read-out: Emax_drug_B): 77.4% | activity at 0.0002 µM ([6]; dose 0.2 nM): 108% | activity at 0.001 µM ([6]; dose 1 nM): 106% | activity at 0.005 µM ([6]; dose 5 nM): 78.9% | activity at 0.025 µM ([6]; dose 25 nM): 34.8% | activity at 0.1 µM ([6]; dose 100 nM): 38.7% | activity at 0.5 µM ([6]; dose 500 nM): 34.1% | activity at 2.5 µM ([6]; dose 2500 nM): 39.6%
